Results taken from publication PMC6270727, “Anticholinesterase Inhibitory Activity of Quaternary Alkaloids from Tinospora crispa” (Molecules, 2014).
Like-named read-outs stand apart in the source and are kept apart here.

Molecular target: T1, acetylcholinesterase (AChE) from electric eels (type V-S) (Electrophorus electricus, UniProt O42275)
T1 construct: purchased Sigma-Aldrich (St. Louis, MO, USA) type V-S (catalogue number not given)
Assay: Acetylcholinesterase (AChE) inhibitory assay, modified Ellman's colorimetric method, 96-well microplate
Format: biochemical
Settings: for AChE inhibitory activity in words: microplate assay

[1] = mean ± standard deviation of two independent experiments, Tris-HCl pH 8, absorbance at 405 nm, read-out: Acetylcholinesterase inhibitory activity IC50

T1 sequence (O42275 24-633): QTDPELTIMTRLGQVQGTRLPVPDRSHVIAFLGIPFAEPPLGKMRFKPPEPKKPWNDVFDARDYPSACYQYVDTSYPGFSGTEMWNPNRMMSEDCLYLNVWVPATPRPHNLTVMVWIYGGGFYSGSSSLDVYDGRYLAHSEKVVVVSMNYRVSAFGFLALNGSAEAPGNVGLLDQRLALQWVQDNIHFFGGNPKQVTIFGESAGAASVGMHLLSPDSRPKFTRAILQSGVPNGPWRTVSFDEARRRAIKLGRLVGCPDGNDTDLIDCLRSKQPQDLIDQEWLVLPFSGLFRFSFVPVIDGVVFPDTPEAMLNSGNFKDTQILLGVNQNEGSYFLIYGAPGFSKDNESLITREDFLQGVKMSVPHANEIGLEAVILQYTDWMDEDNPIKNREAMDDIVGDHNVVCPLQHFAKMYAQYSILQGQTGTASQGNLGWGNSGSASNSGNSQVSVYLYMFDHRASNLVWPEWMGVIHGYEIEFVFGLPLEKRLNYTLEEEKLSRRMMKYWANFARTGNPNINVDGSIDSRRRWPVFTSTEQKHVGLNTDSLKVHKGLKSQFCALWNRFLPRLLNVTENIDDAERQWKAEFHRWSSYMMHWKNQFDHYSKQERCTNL

SMILES	IC50	AChE inhibitory activity in words	IC50 [1]
COc1cc2c(cc1O)-c1cc3ccc(OC)c(OC)c3c[n+]1CC2 [Compound 3, columbamine]	48.1 ± 1.3 µM	most active compound	–
COc1ccc2c(c1O)-c1c(O)c(OC)cc3c1[C@H](C2)[N+](C)(C)CC3 [Compound 4, magnoflorine]	–	very weak or no inhibitory activity	–
O=CN1CCc2cc3c(c4c2C1Cc1ccccc1-4)OCO3 (stereo not shown) [Compound 5, N-formylannonaine]	–	–	415.3 ± 2.7 µM
COc1cc2c3c(c1OC)-c1ccccc1CC3N(C=O)CC2 (stereo not shown) [Compound 6, N-formylnornuciferine]	–	very weak or no inhibitory activity	564.6 ± 2.1 µM
COc1cc(/C=C/C(=O)NCCc2ccc(O)cc2)ccc1O [Compound 7, N-trans-feruloyltyramine]	–	very weak or no inhibitory activity	–
